ChEMBL document CHEMBL5375952, “Discovery of Novel 8-Hydroxyquinoline Derivatives with Potent In Vitro and In Vivo Antifungal Activity” (J Med Chem, 2023)

Tests used:
Candida albicans = test: Synergistic antifungal activity against FLC-resistant Candida albicans 953 assessed as MIC of FLC incubated for 48 hrs by broth microdilution method; format: functional
[1] = AUC (0 to infinity) in Sprague-Dawley rat at 2 mg/kg, iv by LC-MS/MS analysis; format: ADME, organism-based; set-up: dose 2 mg/kg, route iv; settings: in vivo

`CCN(CC)c1ccc(C(NC(=O)C(C)C)c2ccc3cccnc3c2O)cc1` (configuration not stated) gave an MIC (Candida albicans) of 0.125 µg/mL and an AUC(0-inf) [1] of 1110 ng·h/mL.
